# Patent US9045563B2, “CXC chemokine receptor 4 (CXCR4) antagonistic polypeptide” (priority 2007, dated 2015)
# Like-named read-outs stand apart in the source and are kept apart here. Ends that are not written are not given here.
# Experiments:
# CCR5 = target: T1, CCR5 (Homo sapiens, UniProt P51681); assay: Ca2+ mobilization in HEK CCR5 cells (indo-1); format: cell-based; conditions: 50 μM peptide
# T1 construct: expressed in transfected cells; host or cells: HEK293
# Description: Ca^2+ responses were recorded.
# FIG. 17. CXCR4 antagonistic activities of ALB derivatives. […] CXCR4 or CCR5 expressing HEK293 cells were treated with CXCR4 agonist CXCL12 (10 nM) or CCR5 agonist CCL5 (20 nM), respectively, in the absence (no ALB) or presence of indicated ALB derivatives (50 μM). Calcium responses were recorded as described. Data shown are mean values±standard deviation derived from duplicates relative to peak calcium responses after treatment with agonists only (100%). […] CXCR4 expressing HEK293 cells were treated with Texas Red labeled CXCL12 (CXCL12-Tr) in the presence or absence of ALB peptides. Real-time fluorescence monitoring of ligand-receptor interactions was carried out as described. Shown are bound CXCL12-Tr levels in the presence of ALB peptides relative to CXCL12-Tr only treated cells (100% bound). Values were derived from a duplicate experiment.
# X4 tropic HIV-1 NL4-3 = conditions: TZM-bl cells
# Description: HIV inhibition test were performed by seeding 4000 P4-R5 MAGI cells (P. Charneau et al., J. Mol. Biol. 241: 651, 1994) in 100 μl of DMEM (10% FCS, 100 U/ml penicillin G, and 100 μg/ml streptomycin sulfate). P4-R5 cells are stably transfected with an LTR-lacZ cassette and upon successful infection by HIV-1 will express—galactosidase in a Tat-dependent manner, which can be detected in a chemiluminescence test. On the following day, aliquots of the fractions were added. Therefor the lyophilized fractions were resuspended in 80 μl of DMEM, and 25 μl each thereof was pipetted to P4-R5 cells, incubated at 37° C. for 1 hour and subsequently infected with HIV-1 NL4—3 (1 ng of p24 antigen). Virus stocks were obtained by transient infection of 293T cells with proviral DNA by the calcium phosphate method (CalPhos™ Mammalian Transfection Kit, Clontech). Virus stocks were harvested 48 hours post transfection, filtrated and used for infection. Three days post infection, β-galactosidase activity in infected P4-R5 cells was detected using GalScreen assay (TROPIX) as recommended by the manufacturer. Briefly, supernatant was removed, 40 μl of a 1:1 dilution of PBS/GalScreen+substrate was added, followed by incubation at room temperature for 30 min. Then 30 μl of the lysates were transferred into 96 well lumiplates. Subsequently, the lumines-cence was detected as relative light units per second in a luminometer (Berthold, ORION). From all measurements, the mean β-galactosidase background activity of non-infected control cells was subtracted. % infection values for each infection were calculated relative to no peptide containing controls (100%). The enzyme activities in measurements without ALB408-423 were set at 100%, and all other values were based thereon. The final purification (7th step) was examined under exactly the same conditions in TZM-bl cells (X. Wei et al., Antimicrob. Agents Chemother. 46: 1896, 2002).
# 1.6 mg of fraction 31 from the 7th step in Example 1 was dissolved in 160 μl of DMEM. Subsequently, 10 μl of serial dilutions of fraction 31 containing ALB408-423 were added to 60 μl of TZM-bl cells (60 μl) and infected with 1 ng of p24 antigen HIV-1 NL4—3 in a total volume of 100 μl. Three days later, infection rates were determined in a GalScreen assay (see Example 1).
# (§1) 5000 TZM-bl cells were seeded in 100 μl of DMEM (10% FCS, 100 U/ml of penicillin G and 100 μg/ml of streptomycin sulfate). ALB408-423 was dissolved in PBS (10 mg/ml). One day later, 20 μl serial dilutions of ALB408-423 in PBS were added to cells and cells were subsequently infected with 0.5 ng of p24 antigen HIV-1 in a total volume of 200 μl. HIV-1 molecular clones differing in coreceptor tropism were used and generated as described (Papkalla et al., J. Virol. 76: 8455-9, 2002).
# Table 1. Antiviral activity of various ALB fragments against X4 tropic HIV-1 NL4-3 infection. TZM-bl cells containing serial dilutions of synthetic peptides were infected with HIV-1 NL4-3 and infection rates were determined and calculated as described in example 1 and 2 at two days post infection. IC50 values were determined using the GraphPad Prism software package.
# Various ALB408-423 derivatives containing N or C terminal deletions or amino acid substitutions (Table 1) were chemically synthesized and lyophilized peptides were dissolved in PBS. The antiviral activity was analyzed in TZM-bl cells using X4 tropic HIV-1 NL4-3 as described (example 4).
# [1] = system: CCR5 tropic HIV-1 variants; assay: Infection of TZM-bl cells by R5 tropic HIV-1 variants, GalScreen; format: cell-based
# Description: as §1
# FIG. 3: Chemically synthesized ALB408-423 specifically blocks X4 tropic HIV-1 infection. TZM-bl cells containing indicated dilutions of peptide were infected with HIV-1 variants differing in their coreceptor tropism. 3 days later Gal Screen assay was used to measure infection rates. […] B) Infection rates in the presence of 500 μg/ml ALB408-423 showing that the peptide specifically blocks X4 but not R5 tropic HIV-1 infection. Data shown are mean values±standard deviation derived from triplicate infections relative to PBS containing cells (100% infection).
# After 3 days, infection was detected using GalScreen assay (TROPIX) (example 1). […] In contrast, CCR5 tropic HIV-1 variants were not inhibited even in the presence of very high doses of ALB408-423 (500 μg/ml) (FIG. 3B). Due to the specific inhibition of the infection caused by X4-tropic HIV-1 variants, it is to be assumed that ALB408-423 interacts with the chemokine receptor CXCR4.
# Virus stocks were first titrated on TZM-bl cells. Then TZM-bl cells containing 100 μM of peptides were infected with infectivity normalized amounts of X4, dualtropic (X4/R5) or R5 tropic HIV-1.
# FIG. 10. ALB408-423 and truncated ALB derivatives specifically block X4 tropic HIV-1 infection. TZM-bl cells either containing PBS or 100 μM of indicated peptides were infected with normalized infectivities of X4, dualtropic or R5 tropic HIV-1 clones. Infection rates were measured 2 days post infection using the GalScreen assay. Shown are mean values (% of PBS treated control)±standard deviations derived from triplicate measurements.
# T1 sequence (P51681 whole entry): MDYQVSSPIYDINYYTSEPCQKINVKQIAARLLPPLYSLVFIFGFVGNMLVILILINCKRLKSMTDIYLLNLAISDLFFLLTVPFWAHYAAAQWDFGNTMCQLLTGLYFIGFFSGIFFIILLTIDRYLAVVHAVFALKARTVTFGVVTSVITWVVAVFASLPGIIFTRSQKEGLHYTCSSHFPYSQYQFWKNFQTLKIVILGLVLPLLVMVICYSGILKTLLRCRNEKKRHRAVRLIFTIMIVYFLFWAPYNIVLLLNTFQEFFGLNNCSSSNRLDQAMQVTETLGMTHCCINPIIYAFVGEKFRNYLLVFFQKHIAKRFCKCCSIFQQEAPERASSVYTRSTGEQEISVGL
sequence,measurement,setting,value
"LVRYTKKVPQVSTPTL [ALB408-423, LVRYTKKVPQVSTPTL]",effect on CCL5-evoked calcium responses,CCR5; HEK CCR5 cells,no effect
same,"agonism: calcium response induced by the peptide alone, CCR5",CCR5; no chemokine,does not induce any calcium response
same,IC50,"X4 tropic HIV-1 NL4-3; read-out: IC50, X4 tropic HIV-1 infection (Example 5), HIV-1 NL4-3",10 to 20 µM
same,IC50,"X4 tropic HIV-1 NL4-3; read-out: IC50 ± SEM, X4 tropic HIV-1 NL4-3, two days post infection, synthetic peptides",7.6 ± 1.2 µM
same,effect on R5 tropic HIV-1 infection,[1]; 100 μM peptide,no effect
same,inhibition of CCR5 tropic HIV-1 variants,[1]; 500 μg/ml,not inhibited
